Laboratory results: patent US8288399B2, “Medicine containing pyrimidine derivative” (BTG International Limited, priority 2001, dated 2012)
≈ marks a conversion by molar mass, not a printed value.

Tests used:
Type in all cases: cell-based
[1] = system: Mouse abdominal cavity macrophages; assay: Suppression of macrophage (microglia model) activation caused by β-amyloid, nitrogen monoxide production (Griess); details: Aβ1-42 20 μg/ml, 72 hours, mouse interferon γ 250 U/ml and polymyxin B 10 μg/ml, NO production, absorbance at 570 nm
Procedure: (§1) Suppression of microglia activation caused by β-amyloid Mouse abdominal cavity macrophages were prepared as follows for use as a model for microglia. A mouse (C3H/He, N, male, 7-10 weeks old: Nippon SLC) was subjected to cervical vertebrae dislocation then sprayed with 70% ethanol, the skin of the abdomen was cut open leaving the muscularis, from 5 to 7 ml of PBS (phosphate buffered saline) were injected into the abdominal cavity using a 24 G injection needle, the back was squeezed firmly, then injection solution was drawn from the abdominal cavity using a 23 G injection needle. The cells in the collected solution were centrifugally sedimented (900 rpm, 5 minutes) and washed using PBS, then 8×10^4/well were inoculated onto a 96-well microplate in culture solution (DMEM (Sigma), 10% FBS (Gibco), 100 U/ml penicillin+100 μg/ml streptomycin (Sigma)) and cultured in a 5% CO2/95% air incubator at 37° C. The amount of nitrogen monoxide produced was taken as an indicator of macrophage activation. Specifically, the macrophages were incubated for 72 hours in the presence of 1) Aβ1-42 (20 μg/ml: Sigma), and 2) Aβ1-42 and the test compound, then 50 μl of Griess reagent (0.1% N-(1-naphthyl)ethylenediamine (Sigma), 1% sulphanilamide (Sigma), 3% H3PO4) were added to 50 μl of the supernatant, and the light absorbance at 570 nm was measured. It should be noted that this experiment was conducted in culture solution containing mouse interferon γ (250 U/ml: genzyme techne) and polymyxin B (10 μg/ml: Sigma). Also, the same operations were performed using zymosan A (140 ng/ml: Molecular Probes) or LPS (500 pg/ml: Sigma) instead of Aβ, as controls. For LPS, culture medium containing only mouse interferon γ was used.
(§2) The concentration when the absorbance in the presence of 2) Aβ and test compound was 50% of the absorbance when 1) only Aβ 1-42 was added was taken as IC50, and the activity of the compound was appraised in terms of this value.

[2] = system: Mouse abdominal cavity macrophages; assay: Suppression of macrophage activation caused by zymosan A (control), nitrogen monoxide production (Griess); details: zymosan A 140 ng/ml instead of Aβ, 72 hours, mouse interferon γ and polymyxin B, NO production, read-out: IC50 (μg/ml) zymosan A
Procedure: as §1, §2

[3] = system: Mouse abdominal cavity macrophages; assay: Suppression of macrophage activation caused by LPS (control), nitrogen monoxide production (Griess); details: LPS 500 pg/ml instead of Aβ, 72 hours, culture medium containing only mouse interferon γ, NO production, read-out: IC50 (μg/ml) LPS
Procedure: as §1, §2

| Compound | IC50 [1] | IC50 [2] | IC50 [3] |
| --- | --- | --- | --- |
| c1ccc(CCN2CCc3c(C4CC4)nc4ncnn4c32)cc1 [Compound A] | 0.4 µg/mL (≈ 1.31 µM) | > 5 µg/mL | > 5 µg/mL |
| Cc1nc2ncnn2c2c1CCN2CCc1ccccc1 [Compound B] | 0.5 µg/mL (≈ 1.79 µM) | > 5 µg/mL | > 5 µg/mL |
| Cc1nc2ncnn2c2c1CCN2C(C)c1ccccc1 (stereo not drawn) [Compound C] | 0.4 µg/mL (≈ 1.43 µM) | > 5 µg/mL | > 5 µg/mL |
| Cc1nc2ncnn2c2c1CC(C)N2Cc1ccccc1F (stereo not drawn) [Compound D] | 2.3 µg/mL (≈ 7.74 µM) | > 5 µg/mL | > 5 µg/mL |
| Cc1nc2ncnn2c2c1CCN2Cc1ccccc1F [Compound E] | 3.2 µg/mL (≈ 11.3 µM) | > 5 µg/mL | > 5 µg/mL |
| Cc1nc2ncnn2c2c1CC(C)N2Cc1ccccc1Cl (stereo not drawn) [Compound F] | 3.6 µg/mL (≈ 11.5 µM) | > 5 µg/mL | > 5 µg/mL |
| Cc1nc2ncnn2c2c1ccn2Cc1ccccc1Cl [Compound G] | 3.8 µg/mL (≈ 12.8 µM) | > 5 µg/mL | > 5 µg/mL |
| Cc1nc2ccnn2c2c1CCN2Cc1ccccc1 [Compound H] | 4 µg/mL (≈ 15.1 µM) | > 5 µg/mL | > 5 µg/mL |
| Cc1nc2ncnn2c2c1CCN2Cc1ccccc1 [Compound I] | 4.3 µg/mL (≈ 16.2 µM) | > 5 µg/mL | > 5 µg/mL |
| Cc1nc2ncnn2c2c1CCN2Cc1ccccc1Cl [Compound J] | 5 µg/mL (≈ 16.7 µM) | > 5 µg/mL | > 5 µg/mL |
| Cc1nc2ncnn2c2c1CCN2C(C)(C)c1ccccc1 [Compound K] | 5 µg/mL (≈ 17 µM) | > 5 µg/mL | > 5 µg/mL |
